Test results reported in PMC6045410 (ACS Omega, 2017).

Target: FabG4 (β-ketoacyl CoA reductase, EC 1.1.1.100) (Mycobacterium tuberculosis, UniProt I6Y778)

COc1ccc(C(c2ccc(OCCN(C(C)C)C(C)C)cc2)c2cccs2)cc1 (racemic) [S-S006-830, diisopropyl-(2-{4-[(R,S)-(4-methoxy-phenyl)-thiophen-2-yl-methyl]-phenoxy}-ethyl)-amine (printed for the racemate S006-830)]
affinity pull-down on compound-linked agarose beads, 2-DE, LC-MS-MS: The pull-down of FabG4 by drug-affinity beads along with its overexpression by S-S006-830-resistant Mtb
